Measured values published in patent US20260053812A1, “METHODS OF TREATING HYPERTENSION WITH A COMBINATION OF AN ALDOSTERONE SYNTHASE INHIBITOR AND A DIURETIC” (Mineralys Therapeutics, Inc., priority 2022, published 2026).
Values joined by “and” are separate entries in the source; they are usually repeats but may differ in a detail not shown here. Equal entries are not always repeated.

Legend:
Type in all cases: in vivo, human
11-deoxycorticosterone = assay: Pharmacodynamics: 11-deoxycorticosterone
Description: (§1) PK/PD Analysis Set includes all subjects in the SAF who have sufficient data available for the analysis of pharmacokinetic and pharmacodynamic measurements. In the analyses based on PKPD, subjects will be analyzed according to the actual treatment received.

[1] = Clinical laboratory evaluations, vital signs, physical examination, ECG
Description: Safety endpoints of this study are: • (a) Incidence and severity of all spontaneously reported adverse events (AEs) • (b) Changes in vital signs (standing SBP, standing DBP, body temperature, heart rate, and respiratory rate) • (c) Changes in electrocardiogram parameters (including cardiac intervals: PR, QRS, QT, and corrected QT interval using Fridericia's formula) • (d) Changes in clinical laboratory assessments (hematology, chemistry, coagulation, and urinalysis) • (e) Change in office-measured SBP from Study Week 8 (end-of-treatment period to end of follow up (i.e. end of Study Week 12 for Part 1 and end of Study 10 for Part 2).

serum cortisol = assay: Pharmacodynamics: serum cortisol; settings: for Cortisol, mean observed: BL
Description: as §1

Q: Which results are given for `CC(=O)N[C@H]1CC[C@H](NC(=O)CN2CCN(c3nncc(-c4ccc(C)cc4)n3)CC2)CC1` [Compound A HBr]?
A: 11-Deoxycorticosterone, mean observed (11-deoxycorticosterone; Part 1, 12.5 mg BID, Wk 12): 8.0 ng/dL; 11-Deoxycorticosterone, mean observed (11-deoxycorticosterone; Part 1, 12.5 mg QD, BL): 8.3 ng/dL; 11-Deoxycorticosterone, mean observed (11-deoxycorticosterone; Part 1, 25 mg BID, Wk 12): 8.0 ng/dL; 11-Deoxycorticosterone, mean observed (11-deoxycorticosterone; Part 1, 50 mg QD, BL): 8.3 ng/dL; 11-Deoxycorticosterone, mean observed (11-deoxycorticosterone; Part 1, 100 mg QD, Wk 12): 8.4 ng/dL; 11-deoxycorticosterone (11-deoxycorticosterone; Part 1 active treatment arms, Week 4 compared with placebo): Transient increases; 11-Deoxycorticosterone, mean observed (11-deoxycorticosterone; Part 2, 100 mg QD, BL): 10.71 ng/dL; 11-deoxycorticosterone levels (11-deoxycorticosterone; summary of trial): unaffected; Clinical chemistry, hematology, coagulation, urinalysis changes from baseline to Week 8 ([1]; Part 1 or Part 2): no meaningful changes; Vital signs, physical examination, ECG parameters ([1]; Parts 1 and 2): no notable findings; Serum creatinine levels ([1]; active treatment cohorts compared with placebo, Parts 1 and 2): increased; Cortisol, mean observed (serum cortisol; Part 1, 12.5 mg BID): 10.195 µg/dL; Cortisol, mean observed (serum cortisol; Part 1, 12.5 mg QD): 9.443 µg/dL; Cortisol, mean observed (serum cortisol; Part 1, 25 mg BID): 10.577 µg/dL; Cortisol, mean observed (serum cortisol; Part 1, 50 mg QD): 10.807 µg/dL; Cortisol, mean observed (serum cortisol; Part 1, 100 mg QD): 11.272 µg/dL; Serum cortisol percent change from baseline (serum cortisol; Part 1 active arms (range across doses), Week 4): 3.8% to 19.2%; Serum cortisol percent change from baseline (serum cortisol; Part 1 active arms (range across doses), Week 8): 20.6% to 51.4%; Serum cortisol percent change from baseline (serum cortisol; Part 1 active arms (range across doses), Week 12, listed as lorundrostat): −1.2% to 22.7% and −1.2 to 22.6%; Serum cortisol percent change from baseline (serum cortisol; Part 2 100 mg QD, Week 12): 1.5%; Cortisol, mean observed (serum cortisol; Part 2, 100 mg QD): 11.118 µg/dL; Serum cortisol percent change from baseline (serum cortisol; Part 2, 100 mg QD, Week 4): 20.1%; Serum cortisol percent change from baseline (serum cortisol; Part 2, 100 mg QD, Week 8): 153.4%; Adrenocortical insufficiency (serum cortisol; during the trial, listed as lorundrostat): no adrenocortical insufficiency; Effect on serum cortisol (serum cortisol; pooled (Part 1 and Part 2) 100 mg QD safety set (n=60)): no effects on serum cortisol; Morning serum cortisol levels (serum cortisol; summary of trial): modestly increased
